Here are results for 23 molecules from patent US4536518A, “Antidepressant derivatives of cis-4-phenyl-1,2,3,4-tetrahydro-1-naphthalenamine” (priority 1979, dated 1985).

Assay [1] relates to Synaptosomal Uptake of Dopamine (DA), rat corpus striatum. The experiment in a line: Blockade of synaptosomal uptake of dopamine (DA) in vitro. The format is biochemical, rat (Sprague-Dawley CD). As for the experimental part: (§1) Sprague-Dawley CD male rats weighing 180-220 g. (Charles River Laboratories, Inc.; Wilmington, Mass.) were used in this procedure. A crude synaptosomal fraction of rat corpus striatum (for 5HT and DA uptake) or hypothalmus (for NE uptake) tissue was prepared by homogenizing tissue (25 ml./g. wet) in ice-cold 0.32M sucrose containing 1 mg./ml. glucose, 0.0001M EDTA and tris(hydroxymethyl)aminomethane to pH 7.4. The homogenate was centrifuged at 1000 × g for 10 min. at 0°-4° C., the pellet discarded and the supernatant centrifuged at 17,000 × g for 20 min. at 0°-4° C. The resulting pellet was resuspended in the ice-cold 0.32M sucrose pH 7.4 solution at 10 ml./g. original tissue (wet) for corpus striatum and 5 ml./g. original tissue (wet) for hypothalmus. […] After incubation, the mixtures were filtered through 0.45 micron Millipore filters and the filters washed with the incubation buffer. […] Uptake was calculated as picomoles 5HT, DA or NE per mg. protein (protein was determined by measurement with Folin phenol reagent).

In assay [2] the test system is Synaptosomal Uptake of Norepinephrine (NE), rat hypothalmus. As to the kind of experiment: Blockade of synaptosomal uptake of norepinephrine (NE) in vitro. In kind it is biochemical, rat (Sprague-Dawley CD). As for the experimental part:
as §1

The test system of assay [3] is 5-hydroxytryptophan-induced tremors in mice. The experiment in a line: Potentiation of 5-hydroxytryptophan-induced behavioral symptoms (tremors) in vivo. Set-up: species or system mouse (Swiss-Webster CD). Particulars: Mus musculus.
Method: The mice were rated for the presence of this symptom by a "blinded observer" at 10-20 min. after 5HTP treatment.
Assay [4] concerns Synaptosomal Uptake of Serotonin (5HT), rat corpus striatum. The experiment in a line: Blockade of synaptosomal uptake of serotonin (5HT) in vitro. In kind it is biochemical, rat (Sprague-Dawley CD). Conditions: 5HT uptake, Examples 26-49. The protocol:
as §1

The subject of assay [5] is Behavioral Despair in mice. As to the kind of experiment: Reduction of behavioral despair in vivo (modified Porsolt method). Also on record: species or system mouse (Swiss-Webster CD). Particulars: for ED50: Mus musculus, sc, mice, subcutaneous. As for the experimental part: A modification of the procedure described by Porsolt et al., Arch. Int. […] (Charles River Laboratories, Inc.; Wilmington, Mass.) were housed under standard laboratory conditions for at least one week prior to experimentation. Groups of 10 mice were then injected subcutaneously with either a given dosage of the named test compound or vehicle (5% Emulphor: 5% ethanol: 90% normal saline). One hour later the mice were placed individually in 1 liter beakers containing 7 cm. of 25° C. water. Beginning at 2 min. after immersion, each mouse was observed every 30 sec. for the presence of immobility, characterized as floating motionless in the water. A total of ten observations were made, each being scored as "0=animal moving, swimming, attempting to escape" or "1=animal immobile". The number of positive observations for each mouse was then totaled and a mean immobility score calculated for the group of ten.

[6] abbreviates: 1 h, mice, oral, 100 mg./kg. i.p. 5HTP one hour later, read-out: ED50 (tremors).
Setting [7] is: po, 1 h, read-out: ED50 (tremors).
Where [8] appears, read: po, read-out: ED50 (tremors), no observed tremors.
Where [9] appears, read: mice, oral, read-out: ED50 (tremors), no observed tremors.
[10] abbreviates: Examples 71-77, read-out: MPE50.

SMILES strings stand for the structures. Where a name gives a salt, the structure may show the parent alone. Read-outs that look alike come from different tables or passages of the source.

In the case of `CN[C@H]1CC[C@@H](c2ccc(C(F)(F)F)cc2)c2ccccc21` [Example 9], the concentration for half-maximal inhibition (IC50) in assay [1] (Examples 26-49) came out at 6.4 µM; in assay [2] (Examples 26-49), 9.4 µM. Besides, the ED50 in assay [3] (setting [6]) is < 32 mg/kg.

As for `CN[C@@H]1CC[C@H](c2ccc(Cl)cc2)c2ccccc21.Cl` (relative stereo) [Example 4, Cis-N-methyl-4-(4-chlorophenyl)-1,2,3,4-tetrahydro-1-naphthalenamine Hydrochloride], the ED50 in assay [3] (setting [7]) lay in the range of 10 to 32 mg/kg.

`CN[C@H]1CC[C@@H](c2ccccc2)c2ccccc21` (relative stereo) [Comparative Example, Cis(1S) (1R)N--methyl-4-phenyl-1,2,3,4-tetrahydro-1-naphthalenamin hydrochloride, reference compound]: the IC50 in assay [1] (Examples 26-49) worked out at 5.1 µM; in assay [2] (Examples 26-49) it was 1.9 µM; in assay [4] it was 3.5 µM. Moreover, the ED50 in assay [5] (read-out: MPE50, footnoted no observed effect on immobility) is > 32 mg/kg; in assay [3] (setting [8]), > 32 mg/kg.

In assay [2] (Examples 26-49, Hydrochloride), `CN[C@@H]1CC[C@H](c2ccc(Cl)cc2)c2ccccc21.Cl` (relative stereo) [Example 5, Cis-N-methyl-4-(4-chlorophenyl)-1,2,3,4-tetrahydro-1-naphthalenamine Hydrochloride] came in with an IC50 of 5 µM. Besides, in assay [3] (setting [9]), the ED50 was > 10 mg/kg.

Consider `CN[C@@H]1CC[C@H](c2ccc(Cl)c(C(F)(F)F)c2)c2ccccc21` [Example 14], for which the IC50 in assay [1] (Examples 26-49) came to 0.55 µM; in assay [2] (Examples 26-49), 2.4 µM. In addition, in assay [3] (setting [9]), the ED50 is > 32 mg/kg.

As for `CN(C)[C@@H]1CC[C@H](c2ccc(Cl)cc2)c2ccccc21` (relative stereo) [Example 24, Cis-N,N-dimethyl-4-(4-chlorophenyl)-1,2,3,4-tetrahydro-1-naphthalenamine], the IC50 in assay [1] (Examples 26-49) came out at 5.6 µM; in assay [2] (Examples 26-49), 1.2 µM.

As to `CN[C@H]1CC[C@@H](c2ccccc2OC)c2ccccc21` (relative stereo) [Example 18], the IC50 was 11 µM in assay [1] (Examples 26-49), 2.3 µM in assay [2] (Examples 26-49) and 4.2 µM in assay [4]. For the same molecule, the ED50 in assay [5] (setting [10]) and in assay [3] (setting [9]) was > 32 mg/kg throughout.

Take `CN[C@H]1CC[C@@H](c2cccc(OC)c2)c2ccccc21` (relative stereo) [Example 19]: the IC50 in assay [1] (Examples 26-49) came to 5 µM; in assay [2] (Examples 26-49), 1.4 µM; in assay [4], 7.6 µM.

The molecule `CN[C@@H]1CC[C@H](c2ccc(Cl)c(C(F)(F)F)c2)c2ccccc21` (relative stereo) [Example 12, Cis-N-methyl-4-(3-trifluoromethyl-4-chlorophenyl)-1,2,3,4-tetrahydro-1-naphthalenamine] yielded an IC50 in assay [1] (Examples 26-49) of 1.5 µM. For the same molecule, the ED50 in assay [3] (setting [6]) was 1 to 3.2 mg/kg.

Consider `CN[C@H]1CC[C@@H](c2ccc(C(F)(F)F)cc2)c2ccccc21` (relative stereo) [Example 8], for which the IC50 in assay [1] (Examples 26-49) turned out to be 7.8 µM; in assay [2] (Examples 26-49), 9.8 µM; in assay [4], 0.82 µM. Further, the ED50 in assay [3] (setting [6]) fell in the range of 10 to 32 mg/kg.

As to `CN[C@@H]1CC[C@H](c2ccc(Cl)cc2)c2ccccc21` (relative stereo) [Example 6, Cis-N-methyl-4-(4-chlorophenyl)-1,2,3,4-tetrahydro-1-naphthalenamine Hydrochloride], the IC50 in assay [1] (Examples 26-49, Hydrochloride) came to 1.5 µM; in assay [2] (Examples 26-49, Hydrochloride), 1.2 µM.

As to `CN[C@H]1CC[C@@H](c2ccc(Cl)c(Cl)c2)c2ccccc21` (relative stereo) [Example 1, Cis-(1S)(1R)-N-methyl-4-(3,4-dichlorophenyl)-1,2,3,4-tetrahydro-1-naphthalenamine Hvdrochloride], the ED50 in assay [5] (setting [10]) is 4.5 mg/kg; in assay [3] (setting [7]), 3.2 to 5.6 mg/kg.

Take `CN[C@@H]1CC[C@H](c2cccc(C(F)(F)F)c2)c2ccccc21` (relative stereo) [Example 11, Cis-N-methyl-4-(3-trifluoromethyl-phenyl)-1,2,3,4-tetrahydro-1-naphthalenamine]: the IC50 in assay [1] (Examples 26-49) was 2.5 µM; in assay [2] (Examples 26-49), 2.5 µM; in assay [4], 0.25 µM. The “% MPE” value was determined as 45% in assay [5] (32.0 mg./kg. subcutaneous) and 10% in assay [5] (56.0 mg./kg. subcutaneous, apparent overdosage). Moreover, the ED50 in assay [5] (setting [10]) is 42 mg/kg; in assay [3] (setting [7]) it was 10 to 32 mg/kg.

Take `CN[C@H]1CC[C@@H](c2ccc(Cl)c(Cl)c2)c2ccccc21.Cl` [Example 2, Cis-(1S)-N-methyl-4-(3,4-dichlorophenyl)-1,2,3,4-tetrahydro-1-naphthalenamine Hydrochloride]: the “% MPE” value in assay [5] (0.10 mg./kg. subcutaneous) was 7.9%; in assay [5] (0.32 mg./kg. subcutaneous) it was 24%; in assay [5] (1.00 mg./kg. subcutaneous), 17%; in assay [5] (3.20 mg./kg. subcutaneous) it was 41%; in assay [5] (10.0 mg./kg. subcutaneous), 57%; in assay [5] (17.8 mg./kg. subcutaneous) it was 57%. For the same molecule, the “% MPE” value in assay [5] (32.0 mg./kg. subcutaneous) was 66%.

`CN[C@H]1CC[C@@H](c2ccc(Cl)cc2)c2ccc(OC)cc21` (relative stereo) [Example 21, Cis-(1S) (1R)-N-methyl-4-(4-chlorophenyl)-7-methoxy-1,2,3,4-tetrahydro-1-naphthalenamine Hydrochloride]: the IC50 in assay [1] (Examples 26-49) was found to be 0.44 µM; in assay [2] (Examples 26-49), 0.47 µM; in assay [4] it was 0.19 µM.

For the molecule `CN[C@H]1CC[C@@H](c2ccc(Cl)cc2)c2ccc(Cl)cc21` (relative stereo) [Example 15, Cis-(1S)(1R)-N-methyl-4-(4-chlorophenyl)-7-chloro-1,2,3,4-tetrahydro-1-naphthalenamine Hydrochloride], the IC50 in assay [1] (Examples 26-49) turned out to be 1.3 µM; in assay [2] (Examples 26-49), 2.2 µM; in assay [4], 0.3 µM.

As to `CN[C@H]1CC[C@@H](c2ccc(Br)cc2)c2ccccc21` (relative stereo) [Example 16, Cis-(1S)(1R)-N-methyl-4-(4-bromophenyl)-1,2,3,4-tetrahydro-1-naphthalenamine Hydrochloride], the IC50 in assay [1] (Examples 26-49) turned out to be 1.6 µM; in assay [2] (Examples 26-49), 1.4 µM; in assay [4], 0.19 µM.

Turning to `CN[C@H]1CC[C@@H](c2ccc(Cl)cc2Cl)c2ccccc21` (relative stereo) [Example 20, Cis-(1S)(1R)-N-methyl-4-(2,4-dichlorophenyl)-1,2,3,4-tetrahydro-1-naphthalenamine Hydrochloride], the values for the IC50 in assay [1] (Examples 26-49) and in assay [2] (Examples 26-49) were 1.7 µM and 0.31 µM, respectively.

Turning to `CN[C@H]1CC[C@@H](c2ccc(Cl)c(C(F)(F)F)c2)c2ccccc21` [Example 13], the IC50 in assay [1] (Examples 26-49) is 6.8 µM; in assay [2] (Examples 26-49), 3.6 µM. The ED50 in assay [3] (setting [7]) was in the range of 3.2 to 10 mg/kg.

As to `CN(C)[C@H]1CC[C@@H](c2ccc(C(F)(F)F)cc2)c2ccccc21` (relative stereo) [Example 23], the IC50 in assay [1] (Examples 26-49) is 12 µM; in assay [2] (Examples 26-49) it was 14 µM. In addition, the ED50 in assay [3] (setting [7]) lay within 32 to 56 mg/kg.

Take `CN[C@@H]1CC[C@H](c2ccc(C(F)(F)F)cc2)c2ccccc21` [Example 10]: the results for the IC50 in assay [1] (Examples 26-49), in assay [2] (Examples 26-49) and in assay [4] were 5.6 µM, 12 µM and 2.2 µM, respectively. The ED50 in assay [3] (setting [9]) was > 32 mg/kg.

On to `CN[C@H]1CC[C@@H](c2ccc(F)cc2)c2ccccc21` (relative stereo) [Example 7, Cis-(1S)(1R)-N-methyl-4-(4-fluorophenyl)-1,2,3,4-tetrahydro-1-naphthalenamine Hydrochloride], for which the IC50 was found to be 4.7 µM in assay [1] (Examples 26-49) and 2.3 µM in assay [2] (Examples 26-49). Besides, the ED50 was 138 mg/kg in assay [5] (setting [10]) and > 32 mg/kg in assay [3] (setting [8]).

Take `CN[C@H]1CC[C@@H](c2ccc(OC)cc2)c2ccccc21` (relative stereo) [Example 17, Cis-(1S)(1R)-N-methyl-4-(4-methoxyphenyl)-1,2,3,4-tetrahydro-1-naphthalenamine Hydrochloride]: the IC50 in assay [1] (Examples 26-49) is 4.2 µM; in assay [2] (Examples 26-49) it was 3 µM.
